Experiments:
[1] = system: BRAF in complex with MEK; test: BRAF-MEK stabilization in cells (MEK immunoprecipitation, Western); format: cell-based; details: 3 nM, 4 hours
Excerpt: (§1) The stabilization of ARAF, BRAF and CRAF in complex with MEK in MEK immunoprecipitates isolated from cellular lysates. For these studies, HCT-116 (colorectal cell line with KRAS G13D mutation), SKMEL-2 (melanoma cell line with NRAS Q61K mutation), HT-29 (colorectal cell line with BRAF Class I mutation), NCI-H1755 (lung cancer cell line with BRAF Class II mutation), and NCI-H1666 (lung cancer cell line with BRAF Class III mutation) models are used. The tumor cell lines are maintained in vitro as monolayer culture in medium at 37° C. in an atmosphere of 5% CO2 in air. Cell lines are treated with exemplary MEK inhibitors at a concentration of 3 nM for 4 hours. Cells are lysed and MEK is immunoprecipitated from the lysates overnight. Denatured immunoprecipitates are run on SDS-PAGE, transferred to nitrocellulose membranes and associated ARAF, BRAF, or CRAF are detected by Western analysis. Stabilization was defined as >1.5-fold induction of RAF-MEK interaction over vehicle control.

[2] = system: 240 cell lines with known alterations in the MAPK pathway; test: MEK inhibitor sensitivity in 240 cell lines (Cell Titer Glo, 5 days); format: cell-based; details: cell lines with KRAS, NRAS, BRAF Class I and III mutations, CRAF-alterations
Procedure: 240 cell lines representative of multiple cancer indications with known alterations in the MAPK pathway, including KRAS, NRAS, HRAS, NF1, EGFR, BRAF and CRAF mutations, were seeded overnight in […], then treated with a 9-point dose response of exemplary MEK inhibitors (starting dose of 100 nM and 3-fold dilution) for 5 days. Cell viability was determined using a Cell Titer Glo (CTG) assay. Percent inhibition was calculated for all compounds utilizing staurosporine (1000 nM) treatment as a measure of maximal inhibition. IC50 and area under the curve (AUC) values were determined by fitting a variable slope, four parameters curve to the compound concentration to percent inhibition relationship.

[3] = system: AsPC1 xenograft (KRAS G12D); test: In vivo efficacy, AsPC-1 xenograft model; parameters: species or system mouse; details: AsPC-1 model, 3 mg/kg QD, Day 21
Procedure: (§2) The antitumor activity of exemplary MEK inhibitor compounds is evaluated in vivo using human cell line derived xenografts (CDX) grown in immunodeficient mice. For these studies, AsPC1 (pancreatic cell line with KRAS G12D mutation), NCI-H2122 (lung cell line with KRAS G12C mutation), and 5637 (bladder cell line with CRAF amplification) models are used. In addition, HCT-116 (colorectal cell line with KRAS G13D mutation), SKM-1 (AML cell line with KRAS K117N mutation), and OCI-AML-3 (AML cell line with NRAS Q61L mutation) models are used. The tumor cell lines (AsPC-1, NCI-H2122, 5637, and HCT-116 cells) are maintained in vitro as monolayer culture in medium at 37° C. in an atmosphere of 5% CO2 in air. The tumor cell lines (SKM-1 and OCI-AML-3 cells) are maintained in vitro as a suspension in medium at 37° C. in an atmosphere of 5% CO2 in air. The tumor cells are routinely sub-cultured before confluence by trypsin-EDTA treatment, not to exceed 4-5 passages. The cells growing in an exponential growth phase are harvested for tumor inoculation. AsPC1, NCI-H2122, and OCI-AML-3 tumors are implanted into Balb/c nude mice. HCT-116 tumors are implanted into Nu/Nu mice. 5637 and SKM-1 tumors are implanted into NOG mice. […] Throughout the study, mouse body weight and tumor volume are recorded. The measurement of tumor size is conducted twice weekly with a caliper and recorded. […]

[4] = system: 5637 xenograft (CRAF amplification); test: In vivo efficacy, 5637 xenograft model; parameters: species or system mouse; details: 5637 model, 3 mg/kg QD, Day 21
Procedure: as §2

[5] = system: SKM-1 xenograft (KRAS K117N); test: In vivo efficacy, SKM-1 xenograft model; parameters: species or system mouse; details: SKM-1 model, Day 22
Procedure: The antitumor activity of exemplary MEK inhibitor compounds is evaluated in vivo using human cell line derived xenografts (CDX) grown in immunodeficient mice. For these studies, AsPC1 (pancreatic cell line with KRAS G12D mutation), NCI-H2122 (lung cell line with KRAS G12C mutation), and 5637 (bladder cell line with CRAF amplification) models are used. In addition, HCT-116 (colorectal cell line with KRAS G13D mutation), SKM-1 (AML cell line with KRAS K117N mutation), and OCI-AML-3 (AML cell line with NRAS Q61L mutation) models are used. The tumor cell lines (AsPC-1, NCI-H2122, 5637, and HCT-116 cells) are maintained in vitro as monolayer culture in medium at 37° C. in an atmosphere of 5% CO2 in air. The tumor cell lines (SKM-1 and OCI-AML-3 cells) are maintained in vitro as a suspension in medium at 37° C. in an atmosphere of 5% CO2 in air. The tumor cells are routinely sub-cultured before confluence by trypsin-EDTA treatment, not to exceed 4-5 passages. The cells growing in an exponential growth phase are harvested for tumor inoculation. AsPC1, NCI-H2122, and OCI-AML-3 tumors are implanted into Balb/c nude mice. HCT-116 tumors are implanted into Nu/Nu mice. 5637 and SKM-1 tumors are implanted into NOG mice. Each mouse is inoculated subcutaneously on the right flank with tumor cells in a 1:1 mixture with matrigel. Tumors are allowed to grow to approximately 150-200 mm^3. At this time, mice are assigned to groups such that the mean tumor volume is the same for each treatment group. The MEK inhibitor compound treatments are administrated to the tumor-bearing mice via oral gavage. Throughout the study, mouse body weight and tumor volume are recorded. The measurement of tumor size is conducted twice weekly with a caliper and recorded. The tumor volume (mm^3) is estimated using the formula: TV=a×b^2/2, where “a” and “b” are long and short diameters of a tumor, respectively.

[6] = system: ARAF in complex with MEK; test: ARAF-MEK stabilization in cells (MEK immunoprecipitation, Western); format: cell-based; details: HCT-116 and NCI-H1755 cells, 3 nM, 4 hours; stabilization = >1.5-fold over vehicle
Excerpt: as §1

SMILES: CNS(=O)(=O)Nc1cccc(Oc2c(C(=O)NC3CC3)c(Nc3ccc(I)cc3F)n(C)c(=O)c2C)c1Cl [Compound I-2, 4-(2-chloro-3-((N-methylsulfamoyl)amino)phenoxy)-N-cyclopropyl-2-((2-fluoro-4-iodophenyl)amino)-1,5-dimethyl-6-oxo-1,6-dihydropyridine-3-carboxamide]
- Wild-type BRAF-MEK association ([1]; HCT-116 and SKMEL-2 cells): augmented
- mutant BRAF-MEK interaction ([1]; HT-29 (BRAF Class I), NCI-H1755 (BRAF Class II), NCI-H1666 (BRAF Class III)): enhanced
- sensitivity compared to RAS/RAF wild-type cell lines [2]: increased sensitivity
- average body weight gain [3]: 2.4%
- percent TGI (tumor growth inhibition) [3]: 83.4%
- average body weight loss [4]: 6.8%
- percent TGI [4]: 111%
- percent TGI ([5]; 1 mg/kg QD): 97.7%
- weight gain ([5]; 1 mg/kg QD): 1.2%
- average body weight loss ([5]; 3 mg/kg QD): 1.2%
- percent TGI ([5]; 6 mg/kg QOD): 96.2%
- weight gain ([5]; 6 mg/kg QOD): 3.9%
- association of ARAF with MEK [6]: enhanced

From patent US20230382863A1, “MEK INHIBITORS AND USES THEREOF” (Ikena Oncology, Inc., priority 2022, published 2023)
